# Experimental data reported in US11371097B2, “Articles for diagnosis of liver fibrosis” (THE GOVERNMENT OF THE UNITED STATES, as represented by THE …, priority 2015, dated 2022).
# Several values for one entry are separate records, joined by “and”; a condition that tells them apart may be missing. Identical values can stand only once. Like-named read-outs stand apart in the source and are kept apart here.
# Experiments:
# liver [1] = conditions: cited from earlier work
# liver [2] = format: in vivo, Male Sprague-Dawley rats
# Procedure: All chemical compounds were diluted in corn oil (CAS No. 8001-30-7) (MP Biomedicals, LLC (Solon, Ohio)). The dose volume was 5 mL/kg. Doses were selected based on doses published in the DrugMatrix database, the National Toxicology Program reports, and ATSDR reports.
# (§1) In vivo rat experiments were performed at Integrated Laboratory Systems (ILS, Research Triangle Park, NC). ILS's Institutional Animal Care and Use Committee approved all experimental procedures. Research was conducted in compliance with the Animal Welfare Act, and other Federal statutes and regulations relating to animals and experiments involving animals and adheres to principles stated in the “Guide for Care and Use of Laboratory Animals” as prepared by the Committee on Care and Use of Laboratory Animals of the Institute of Laboratory Animal Resources, National Research Council in facilities that are fully accredited by the Association for Assessment and Accreditation of Laboratory Animal Care, International. Male Sprague-Dawley rats (CD IGS [CRL:CD (SD)]) were purchased from Charles River Laboratories (Stone Ridge, N.Y.). Rats weighing 215-245 g (8 weeks old) were used. Briefly, rats were housed two per cage with a rat tunnel enrichment device (Bio-Serve, Frenchtown, N.J.). Rats were fed a Purina Rodent Diet No. 5002 (Ralston Purina Co., St. Louis, Mo.), supplied ad libitum. Animals received reverse osmosis-treated tap water (City of Durham, N.C.) ad libitum, which was changed at least once weekly. Controls in the animal rooms were set to maintain temperatures between 20-In vivo rat experiments were performed at Integrated Laboratory Systems (ILS, Research Triangle Park, NC). ILS's Institutional Animal Care and Use Committee approved all experimental procedures. Research was conducted in compliance with the Animal Welfare Act, and other Federal statutes and regulations relating to animals and experiments involving animals and adheres to principles stated in the “Guide for Care and Use of Laboratory Animals” as prepared by the Committee on Care and Use of Laboratory Animals of the Institute of Laboratory Animal Resources, National Research Council in facilities that are fully accredited by the Association for Assessment and Accreditation of Laboratory Animal Care, International. Male Sprague-Dawley rats (CD IGS [CRL:CD (SD)]) were purchased from Charles River Laboratories (Stone Ridge, N.Y.). Rats weighing 215-245 g (8 weeks old) were used. Briefly, rats were housed two per cage with a rat tunnel enrichment device (Bio-Serve, Frenchtown, N.J.). Rats were fed a Purina Rodent Diet No. 5002 (Ralston Purina Co., St. Louis, Mo.), supplied ad libitum. Animals received reverse osmosis-treated tap water (City of Durham, N.C.) ad libitum, which was changed at least once weekly. Controls in the animal rooms were set to maintain temperatures between 20-25° C. with a relative humidity of 30-70% and a 12-hour light/12-hour dark cycle, lights on at 6:00 AM. Clinically healthy animals were assigned to dose groups using a procedure that stratifies animals across groups by body weight such that mean body weight of each group was not statistically different from any other group using analysis of variance (Statistical Analysis System version 9.2, SAS Institute, Cary, N.C.). Animals were dosed by oral gavage for five consecutive days (+10 minutes from the previous day's dose administration time). Volume was based upon daily body weight.
# Animals were observed cageside one hour following daily dose administration, then 1-2 times per day during dosing regimens. Body weights were measured daily prior to dose administration, and prior to euthanasia. Twenty-four hours after the final dose administration, animals were anesthetized with isoflurane then euthanized by exsanguination followed by decapitation. Livers were harvested at necropsy and weighed to within 0.1 g. One half of the left lobe of the liver was fixed in 10% formalin. […]
# Timp1 = assay: qPCR of liver RNA: Timp1; format: in vivo, Male Sprague-Dawley rats; conditions: across dose groups, vs control
# Procedure: (§2) Working on dry ice, a portion (−10 mg) of flash-frozen liver was cut from each sample and transferred to a clean, labeled tube. Total RNA was then isolated using Qiagen's miRNeasy 96 kit (Qiagen, Valencia, Calif.) following manufacturer's instructions with a final elution volume of −150 μL (2×75 μL). The quality and quantity of RNA samples were evaluated with a 2100 Bioanalyzer (Agilent Technologies, Santa Clara, Calif.), using the Agilent RNA 6000 Nano Reagents and a multiwell NanoDrop 8000 spectrophotometer (Thermo Fisher Scientific, Waltham, Mass.).
# Using 1 μg RNA input, cDNA was generated using a QuantiTect Reverse Transcription kit (Qiagen, Valencia, Calif.) following manufacturer's instructions. Applied Biosystems SYBR Green Master Mix was used in a 20 μL qPCR reaction with 2 μL of cDNA template and a 2.tM final concentration of each primer. A total of five genes were targeted (Gapdh, Actb, Timp1, Tgfbl, and Psma5), two of which served as the endogenous controls (Gapdh and Actb). An Applied Biosystems 7500 Real-Time PCR System (Applied Biosystems, Foster City, Calif.) was used for thermal cycling and fluorescence detection using the default settings for Quantitation-Comparative CT with SYBR® . . . Green Reagents which uses the following scheme: 95° C. for 10 minutes followed by 40 cycles of: 95° C. for 15 seconds, 60° C. for 1 minute, and a fluorescence signal read. […]
# [3] = system: 67 genes on the fibrosis gene panel; assay: Multiplexed fibrosis gene panel (QuantiGene 2.0 Plex / Bioplex) on liver RNA; conditions: liver, 67 genes
# Procedure: mRNA is isolated and purified from lysed tissue biopsy specimens. The target mRNA is incubated with beads conjugated to capture probes (each probe is an oligonucleotides specific for one of the genes in the panel). The target is hybridized to the probe by a capture extender-capture probe interaction. Specific mRNA targets hybridize overnight to the respective beads. The signal is amplified by incubating mRNA-capture probe pairs by affixing an amplifier affixed to a biotinylated label probe. Streptavidin-conjugated phycoerythrin (SAPE) is bound to the biotinylated probe to amplify the signal. The signal is detected and quantified by Bioplex suspension array instrumentation, which measures the SAPE fluorescence signal proportional to the amount of mRNA transcripts captured by the bead.
# Candidate genes identified by co-expression modules and pathway/network approaches were fabricated into a custom gene panel using a commercial source (the QuantiGene 2.0 Plex assay, Affymetrix, Santa Clara, Calif.). A total of 71 genes plus 3 housekeeping genes were selected. Using 150 ng RNA input, samples were processed following manufacturer's instructions for purified RNA with use of the HandHeld Magnetic Plate Washer. Plates were read immediately following the final wash using the BioPlex 200 instrument (BioRad, Hercules, Calif.). The following parameters were set on the BioPlex instrument: sample size=100 μL; DD Gate=5,000-25,000; Timeout=45 sec; Bead Event/Bead Region=100.
# For each sample, the average signal intensity was determined as recommended by the manufacturer. Duplicates were averaged. The average background signal for each gene was subtracted. Assay limit of detection was determined by adding three standard deviations of assay background signals to the average intensity of the background control wells. All intensities lower than the limit of detection for each probe was set to one unit above the probe's limit of detection. Probes with all intensities below the assay limit of detection were removed from the final analysis. The test gene signal was divided by the average intensities of the three normalization genes (Gapdh, Hprt1, Ppib). For each test gene, the fold change was calculated by dividing the normalized value for the treated samples by the normalized value of the vehicle-treated controls. Fold changes were plotted as log2 fold change. Gene expression data were imported into Partek Genomics Suite 6.0 (Partek, Inc., St. Louis, Mo.). Principal component analysis was used for multivariate interpretation to determine sources of variation across sample groups (Joliffe I T, Morgan B J. Principal component analysis and exploratory factor analysis. Statistical methods in medical research 1992; 1(1):69-95). Differentially expressed genes were determined by analysis of variance (ANOVA) with contrasts, setting the ANOVA factors as toxicant and the histopathological endpoint of fibrosis (any score >0). ANOVA variables were fibrosis score 0 (none) vs. score of >0 (minimal, mild, moderate, and marked). For hierarchical biclustering, differentially expressed genes were standardized by setting the genes expressed to a mean of zero and scaling to a standard deviation of one. Euclidean geometry was used to cluster row and column dissimilarity using a method of average linkage.
# Chemical-dose groups were down-selected based on histopathology to conform to the 96-well assay format of the multiplexed panel of presumptive fibrosis genes. Three of the four dose groups were evaluated for the fibrogenic chemicals allyl alcohol and 4,4′-methylenedianiline. A single dose was selected with group-matched vehicle controls for each of the remaining chemicals. […] The highest dose of bromobenzene was selected because the vacuolation pathology was only observed at this dose.
# Isolated liver RNA was incubated with microbead-bound capture probes specific for the 71 presumptive fibrogenic genes and three housekeeping normalization genes.
# [4] = format: in vivo, Male Sprague-Dawley rats
# Procedure: as §1
# Animals were observed cageside one hour following daily dose administration, then 1-2 times per day during dosing regimens. Body weights were measured daily prior to dose administration, and prior to euthanasia. Twenty-four hours after the final dose administration, animals were anesthetized with isoflurane then euthanized by exsanguination followed by decapitation. Livers were harvested at necropsy and weighed to within 0.1 g. One half of the left lobe of the liver was fixed in 10% formalin. The remaining half of the left lobe of the liver was flash frozen in liquid nitrogen, then stored below −70° C. Liver specimens were frozen in less than three minutes from time of death.
# Tgfb1 = assay: qPCR of liver RNA: Tgfb1; format: in vivo, Male Sprague-Dawley rats; conditions: liver, across dose groups, vs control
# Procedure: as §2
# Using 1 μg RNA input, cDNA was generated using a QuantiTect Reverse Transcription kit (Qiagen, Valencia, Calif.) following manufacturer's instructions. Applied Biosystems SYBR Green Master Mix was used in a 20 μL qPCR reaction with 2 μL of cDNA template and a 2.tM final concentration of each primer. A total of five genes were targeted (Gapdh, Actb, Timp1, Tgfbl, and Psma5), two of which served as the endogenous controls (Gapdh and Actb). An Applied Biosystems 7500 Real-Time PCR System (Applied Biosystems, Foster City, Calif.) was used for thermal cycling and fluorescence detection using the default settings for Quantitation-Comparative CT with SYBR® . . . Green Reagents which uses the following scheme: 95° C. for 10 minutes followed by 40 cycles of: 95° C. for 15 seconds, 60° C. for 1 minute, and a fluorescence signal read. Al! primers were obtained from Integrated DNA Technology's PrimeTime qPCR primer library (Integrated DNA Technologies, Coralville, Iowa).
# Data was imported into GraphPad Prism (GraphPad Software, Inc.; LaJolla, Calif.) for analysis. A nonparametric Kruskal-Wallis analysis of variance by ranks with post hoc […] multiple comparison test was used to determine statistical difference among dose groups. A one sample t-test compared to a theoretical mean of 1.0 fold change was used to determine difference from control for each dose group. A p-value<0.05 was used as a cutoff for statistical significance.
# [5] = 5-7 days oral administration or intraperitoneal injection, various doses
# [6] = Allyl Alcohol 9.7 mg/kg, animals 9-12
# [7] = Allyl Alcohol 45 mg/kg, animals 17, 18, 20
# 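Throughout, for Cytoplasmic Alteration: Severity grades from None 0% through Minimal Mild Moderate to Marked over 80% tissue affected.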
# 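Throughout, for Inflammation: Severity grades from None 0% through Minimal Mild Moderate to Marked over 80% tissue affected.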
# 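Throughout, for Vacuolation: Severity grades from None 0% through Minimal Mild Moderate to Marked over 80% tissue affected.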
molecule,measurement,setting,value
S=C=Nc1cccc2ccccc12 [1-naphthyl isothiocyanate],Fibrosis score in the DrugMatrix study,"liver [1]; rat, in vivo",scored fibrosis-positive
CC(C)(Oc1ccc(CCNC(=O)c2ccc(Cl)cc2)cc1)C(=O)O [bezafibrate],Fibrosis score in the DrugMatrix study,liver [1]; [5],scored fibrosis-positive
COc1ccccc1OCCNCC(O)COc1cccc2[nH]c3ccccc3c12 (stereo not shown) [carvedilol],Fibrosis score in the DrugMatrix study,liver [1]; [5],scored fibrosis-positive
CC=CC(=O)N(CC)c1ccccc1C [crotamiton],Fibrosis score in the DrugMatrix study,liver [1]; [5],scored fibrosis-positive
C[C@]12CC[C@H]3[C@@H](CCC4=CC(=O)CC[C@@]43C)[C@@H]1CC[C@@H]2O [testosterone],Fibrosis score in the DrugMatrix study,liver [1]; [5],scored fibrosis-positive
allyl alcohol,Bile Duct Hyperplasia and Fibroplasia,liver [2]; [6],0
same,Cytoplasmic Alteration,liver [2]; [6],1
same,Inflammation,liver [2]; [6],0
same,Necrosis,liver [2]; [6],0
same,Vacuolation,liver [2]; [6],0
same,Vacuolation,"liver [2]; Allyl Alcohol 20.9 mg/kg, animals 13-16",0
same,Bile Duct Hyperplasia and Fibroplasia,liver [2]; [7],3
same,Cytoplasmic Alteration,liver [2]; [7],3 and 4 and 2
same,Inflammation,liver [2]; [7],3 and 2
same,Necrosis,liver [2]; [7],3 and 4
same,Vacuolation,liver [2]; [7],0
same,Combined histopathological scores as percent of animals with pathology,"liver [2]; across dose groups, five days (figure legend)",dose-dependent increase in severe pathology
same,Fibrosis histopathology in the present study,liver [2]; high doses,associated with fibrosis histopathology
same,Fibrosis histopathology in the present study,"liver [2]; high doses, listed as Allyl alcohol",scored positive for fibrosis
same,Fibrosis histopathology,liver [2]; low-dose (carbon tetrachloride: all doses),without fibrosis
same,Degree of fibrosis,"liver [2]; oral gavage five days, across doses",dose-dependent increase in the degree of fibrosis
same,"Histopathology: bile duct hyperplasia, fibrosis, necrosis","liver [2]; oral gavage five days, high doses",caused bile duct hyperplasia comorbid with fibrosis and necrosis
same,Timp1 gene expression by qPCR,Timp1,showed a dose-dependent increase
same,Fibrosis score in the DrugMatrix study,liver [1]; [5],scored fibrosis-positive
same,Hierarchical biclustering of log2 fold-changes in panel gene expression,[3],clustered with the non-fibrogenic chemical-dose groups
same,Body weight gain over the five experimental dosing days,[4]; dose groups,increase in body weight gain
same,Body weight change over the five-day exposure interval,[4]; highest dose(s),gained less weight over the five-day exposure interval than their low-dose counterparts
same,Tgfb1 gene expression by qPCR,Tgfb1,showed a dose-dependent increase
